Test results reported in patent US5093339A, “Pyrano[f]quinoline derivatives and pharmaceutical compositions containing the same” (Kodama Kabushiki Kaisha, priority 1988, dated 1992).
Where two headings read alike, the source gives them in different places.

How the values were obtained:
blood pressure = test: Blood pressure-reducing action (Test Example 2); assay type: in vivo, dog; conditions: dogs, i.v., dissolved in dimethylsulfoxide; for ED20: Canis lupus familiaris, iv, read-out: ED20, dose effective to reduce the blood pressure by 20%
Procedure: In order to evaluate the blood pressure-reducing action of the present compounds, each of the compounds was dissolved in dimethylsulfoxide and administered intravenously to dogs. After administration, a dose of the compound effective to reduce the blood pressure by 20% (ED20 :mg/Kg) was measured.

[1] = tested on: platelet plasma (platelet-rich plasma of rabbit); test: Platelet aggregation inhibitory action (Test Example 1), rabbit platelet plasma, aggregation by ADP, PAF, AA or collagen; assay type: cell-based
Procedure: For evaluating the platelet aggregation inhibitory action of the present compounds, platelet plasma containing 5×10^5 of platelets in 1 μl of plasma was prepared by appropriately mixing platelet-rich plasma (PRP) of rabbit with platelet-poor plasma (PPP). By using the platelet plasma, the present compounds were measured on 50% inhibitory efficacy (IC 50) against each of platelet aggregation accelerators, 10 μM of adenosine diphosphate (ADP), 0.01 μg/ml of platelet activation factor (PAF), 300 μM of arachidonic acid (AA) and 30 μg/ml of collagen.

carotid blood-flow = test: Blood-flow increasing action (Test Example 3), carotid; assay type: in vivo, dog; conditions: Canis lupus familiaris, iv; dogs, i.v., dissolved in dimethylsulfoxide; read-out: Carotid blood-flow increasing action (ED30), dose required to increase the blood-flow in the carotid by 30%
Procedure: In order to evaluate the blood-flow increasing action of the present compounds, each of the compounds was dissolved in dimethylsulfoxide and administered intravenously to dogs. After administration, a dose required to increase the blood-flow in the carotid by 30% was determined.

[2] = Acute toxicity test (Test Example 4); conditions: in vivo; oral administration to mouse, suspended in carboxymethyl cellulose; read-out: LD50, 50% lethal dose
Procedure: Each of the present compounds suspended in a carboxymethyl cellulose was administered orally to a mouse and a 50% lethal dose (LD50) was measured. There was not observed any dead mouse even with the administration as high as 2,000 mg/Kg.

[3] = Oryctolagus cuniculus, 0.01 μg/ml platelet activation factor (PAF), read-out: 50% inhibitory efficacy (IC 50), PAF, Coagulant (ID50)
[4] = Oryctolagus cuniculus, 10 μM adenosine diphosphate (ADP), read-out: 50% inhibitory efficacy (IC 50), ADP, Coagulant (ID50)
[5] = Oryctolagus cuniculus, 30 μg/ml collagen, read-out: 50% inhibitory efficacy (IC 50), Collagen, Coagulant (ID50)
[6] = Oryctolagus cuniculus, 300 μM arachidonic acid (AA), read-out: 50% inhibitory efficacy (IC 50), AA, Coagulant (ID50)

Compound | IC50 ([1]; 0.01 μg/ml platelet activation factor (PAF), read-out: 50% inhibitory efficacy (IC 50), PAF, Coagulant (ID50)) [µM] | IC50 ([1]; 10 μM adenosine diphosphate (ADP), read-out: 50% inhibitory efficacy (IC 50), ADP, Coagulant (ID50)) [µM] | IC50 ([1]; 30 μg/ml collagen, read-out: 50% inhibitory efficacy (IC 50), Collagen, Coagulant (ID50)) [µM] | IC50 ([1]; 300 μM arachidonic acid (AA), read-out: 50% inhibitory efficacy (IC 50), AA, Coagulant (ID50)) [µM] | IC50 [1, 3] [µM] | IC50 [1, 4] [µM] | IC50 [1, 5] [µM] | IC50 [1, 6] [µM] | ED20, dose effective to reduce the blood pressure by 20% (blood pressure) [mg/kg] | ED20 (blood pressure) [mg/kg] | ED30 (carotid blood-flow) [mg/kg] | LD50 [2] [mg/kg]
CC1(C)CCc2c(ccc3c2CCC(=O)N3)O1 [Preparation Example 3, 3,3-dimethyl-1,2,9,10-tetrahydro-3H-pyrano [3,2-f]quinoline-8(7H)-one] | – | – | – | – | 22 | 20 | 21 | 16 | – | 0.4 | 0.03 | –
CC1(C)CCc2c(ccc3[nH]c(=O)ccc23)O1 [Preparation Example 2, 3,3-dimethyl-1,2-dihydro-3H-pyrano[3,2-f]quinoline-8(7H)-one] | – | – | – | – | 6 | 5 | 7 | 5 | – | 1.2 | 0.009 | –
O=c1ccc2c3c(ccc2[nH]1)OCCC3 [Preparation Example 5, 1,2,3,3-tetrahydro-3H-pyrano-[3,2-f]quinoline-8(7H)-one] | – | – | – | – | 8 | 3 | 6 | 4 | – | 1.6 | 0.0094 | ≥ 2000
O=c1ccc2c3c(ccc2[nH]1)OCCC3O (stereo not shown) [Preparation Example 8, 1-hydroxy-1,2,3,3-tetrahydro-3H-pyrano[3,2-f]quinoline-8(7H)-one] | – | – | – | – | 25 | 20 | 18 | 18 | – | 1.8 | – | –
CC1(C)Oc2ccc3[nH]c(=O)ccc3c2CC1O (stereo not shown) [Preparation Example 7, 3,3-dimethyl-1,2-hydroxy-1,2-dihydro-3 H-pyrano[3,2-f]quinoline-8(7H)-one] | – | – | – | – | 21 | 20 | 13 | 13 | – | 1.6 | – | –
O=c1ccc2c3c(ccc2[nH]1)OCC(O)C3 (stereo not shown) [Preparation Example 6, 2-hydroxy-1,2,3,3-tetrahydro-3H-pyrano [3,2-f]quinoline-8(7H)-one] | – | – | – | – | 47 | 30 | 25 | 21 | – | 1.5 | 0.19 | ≥ 2000

The next lines start with results.

IC50 ([1]; 0.01 μg/ml platelet activation factor (PAF), read-out: 50% inhibitory efficacy (IC 50), PAF, Coagulant (ID50)) [µM] | IC50 ([1]; 10 μM adenosine diphosphate (ADP), read-out: 50% inhibitory efficacy (IC 50), ADP, Coagulant (ID50)) [µM] | IC50 ([1]; 30 μg/ml collagen, read-out: 50% inhibitory efficacy (IC 50), Collagen, Coagulant (ID50)) [µM] | IC50 ([1]; 300 μM arachidonic acid (AA), read-out: 50% inhibitory efficacy (IC 50), AA, Coagulant (ID50)) [µM] | IC50 [1, 3] [µM] | IC50 [1, 4] [µM] | IC50 [1, 5] [µM] | IC50 [1, 6] [µM] | Compound | ED20, dose effective to reduce the blood pressure by 20% (blood pressure) [mg/kg] | ED20 (blood pressure) [mg/kg] | ED30 (carotid blood-flow) [mg/kg] | LD50 [2] [mg/kg]
45 | 30 | 30 | 21 | – | – | – | – | 3,3-dimethyl-1-hydroxy-3H-pyrano [3,2-f]quinoline-8(7H)-one [Preparation Example 9] | 1.5 | – | – | –
– | – | – | – | 25 | 30 | 20 | 18 | O=c1ccc2c3c(ccc2[nH]1)OCC=C3 [Preparation Example 4, 3,3-dihydro-3H-pyrano[3,2-f]quinoline-8(7H)-one] | – | 0.5 | 0.066 | –
– | – | – | – | 8 | 5 | 5 | 3 | CC1CCc2c(ccc3[nH]c(=O)ccc23)O1 (stereo not shown) [Preparation Example 1, 3-methyl-1,2-dihydro-3H-pyrano[3,2-f]quinoline-8(7H)-one] | – | 1.2 | – | –
